For seven compounds, MIC and Km results are on record in publication PMC6867895 (mBio, 2019).

In test [1] the test system is E. coli DH10B pBCSK- blaVIM-2. Put plainly: microbe, parasite or virus in culture. The conditions noted are these: Escherichia coli, read-out: MIC.
In another test the test system is E. coli DH10B pBCSK-. Briefly: microbe, parasite or virus in culture. As to conditions: Escherichia coli, DH10BPBCSK, read-out: MIC.
Test [2] deals with T1, VIM-2 (Pseudomonas aeruginosa, UniProt Q9K2N0).
T1 construct: gene blaVIM-2
As to conditions: read-out: Parameter by metallo-β-lactamase / VIM-2 / KM; 50 mM HEPES pH 7.0, 10 μM added ZnSO4, 25°C.

The target of test [3] is T1, VIM-2. As to conditions: read-out: Parameter by metallo-β-lactamase / VIM-2 / KM; 50 mM HEPES pH 7.0, 10 μM added ZnSO4, 25°C. This is another data set of the same source.
The target of test [4] is T1, VIM-2. As to conditions: read-out: Parameter by metallo-β-lactamase / VIM-2 / KM; 50 mM HEPES pH 7.0, 10 μM added ZnSO4, 25°C. This is another data set of the same source.
Test [5] concerns the target T1, VIM-2. Briefly: initial-rate hydrolysis, absorbance […] nm (product formation). In kind it is biochemical. The conditions noted are these: read-out: Parameter by metallo-β-lactamase / VIM-2 / KM; 50 mM HEPES pH 7.0, 10 μM added ZnSO4, 25°C.

In brackets after ≈: the same amount, converted by molar mass. Where two headings read alike, the source gives them in different places.

Turning to `C[C@@H](O)[C@H]1C(=O)N2C(C(=O)O)=C(S[C@@H]3CN[C@H](C(=O)Nc4cccc(C(=O)O)c4)C3)[C@H](C)[C@H]12` [Ertapenem], the MIC in test [1] came out at 0.25 µg/mL (≈ 0.526 µM); in the test on E. coli DH10B pBCSK-, 0.0075 µg/mL (≈ 0.0158 µM).

Consider `C[C@@H](O)[C@H]1C(=O)N2C(C(=O)O)=C(S[C@@H]3CN[C@H](C(=O)N(C)C)C3)[C@H](C)[C@H]12` [Meropenem], for which the MIC in test [1] came to 0.5 µg/mL (≈ 1.3 µM); in the test with E. coli DH10B pBCSK- it was 0.03 µg/mL (≈ 0.0782 µM). Also, the Km at VIM-2 [2] amounted to 5 ± 0.8 µM.

As to `CC(C)(O/N=C(\C(=O)N[C@@H]1C(=O)N2C(C(=O)[O-])=C(C[n+]3ccccc3)CS[C@H]12)c1csc(N)n1)C(=O)O` [Ceftazidime], the MIC in test [1] is 32 µg/mL (≈ 58.5 µM); with E. coli DH10B pBCSK-, 0.5 µg/mL (≈ 0.915 µM). Besides, on VIM-2 [3], the Km is 90 ± 11 µM.

As for `CC(=O)OCC1=C(C(=O)O)N2C(=O)[C@@H](NC(=O)Cc3cccs3)[C@H]2SC1` [Cephalothin], the MIC in test [1] turned out to be 256 µg/mL (≈ 646 µM); with E. coli DH10B pBCSK- it was 4 µg/mL (≈ 10.1 µM).

Regarding `C[C@@H](O)[C@H]1C(=O)N2C(C(=O)O)=C(SCCNC=N)C[C@H]12` [Imipenem], the MIC worked out at 4 µg/mL (≈ 13.4 µM) in test [1] and 0.5 µg/mL (≈ 1.67 µM) in the test with E. coli DH10B pBCSK-.

As to `CC1(C)S[C@@H]2[C@H](NC(=O)[C@H](N)c3ccccc3)C(=O)N2[C@H]1C(=O)O` [Ampicillin], the results for the MIC (in test [1]; in the test with E. coli DH10B pBCSK-) were 1020 µg/mL (≈ 2930 µM) and 4 µg/mL (≈ 11.4 µM), respectively. In addition, the Km at VIM-2 [4] turned out to be 84 ± 7 µM.

In the case of Chromacef, the Km on VIM-2 [5] was 11 ± 2 µM.
